The term IC50 denotes the concentration that inhibits the measured activity by half. Lower therefore signals greater potency.

This passage reports IC50 results from BindingDB's records for doi:10.1016/j.bmc.2014.01.014 (Shenyang Pharmaceutical University, 2014).

The target in this assay is Hepatocyte growth factor receptor (Homo sapiens, UniProt P08581). As to the kind of experiment: Inhibition of c-Met (unknown origin) using poly (Glu, Tyr) 4:1 after 30 mins by HTRF assay. (Time-resolved FRET reads energy transfer from a long-lived donor to a nearby acceptor.)
`COc1cc2c(Oc3ccc(N=Cc4c(O)n(-c5ccc(C)cc5)c(=O)[nH]c4=O)cc3F)ccnc2cc1OCCCN1CCN(C)CC1` gave an IC50 of 2.7 nM. That is a single-digit nanomolar value.

With `COc1cc2c(Oc3ccc(N=Cc4c(O)n(-c5ccc(F)cc5F)c(=O)[nH]c4=O)cc3F)ccnc2cc1OCCCN1CCOCC1`, the IC50 worked out at 12 nM. As for `COc1cc2c(Oc3ccc(N=Cc4c(O)n(-c5ccc(F)cc5F)c(=O)[nH]c4=O)cc3F)ccnc2cc1OCCCN1CCCC1`, the figure is 12 nM; as for `COc1cc2c(Oc3ccc(N=Cc4c(O)n(-c5ccc(F)cc5)c(=O)[nH]c4=O)cc3F)ccnc2cc1OCCCN1CCCC1`, 2.7 nM.
